Assay results as given in publication PMC12040169 (PLOS Biology, 2025).

Experiment: in vitro
Settings: human, hela cells, % viability

Structure (SMILES)	viability at 28.5 h, 10 µM	viability at 28.5 h, 10 µM (bulk resorufin, single well)
NS(=O)(=O)c1cccc(NC(=O)COc2ccc([N+](=O)[O-])cc2)c1 [CBK263624]	92.2%	
COc1ccc(C(=O)NCc2ccc(S(N)(=O)=O)cc2)cc1[N+](=O)[O-] [CBK263629]	105%	
COc1cc(/C=N\NC(=O)CSc2nc3ccccc3o2)ccc1O [CBK263630]	86.5%	
NNC(=O)CCc1nc2ccc(O)cc2[nH]1 [CBK263633]	93%	
Cc1ccc2nc(Nc3nc(C)cc(C)n3)[nH]c2c1 [CBK263634]	97.9%	
COc1ccc(-c2cc(C(=O)Nc3ccc(S(N)(=O)=O)cc3)c3ccccc3n2)cc1OC [CBK263635]	93.1%	
CCc1cccc(NC(=O)CCc2ccccc2)c1 [CBK263637]	112%	
CN(C)S(=O)(=O)N1CCN(Cc2ccccc2)CC1 [CBK263638]	109%	
COC(=O)c1ccccc1NC(=O)c1c(C)c(-c2ccc(C)cc2)nc2ccccc12 [CBK263641]	94.9%	
CC(=O)Nc1ccc(C(=O)NCc2ccc(S(N)(=O)=O)cc2)cc1 [CBK263642]	105%	
O=C(CCN1C(=O)/C(=C\c2cccs2)SC1=S)Nc1cc(Cl)ccc1O [CBK263643]	98.2%	
N#C/C(=C\c1ccccc1O)C(=O)Nc1sc2c(c1C(N)=O)CCCC2 [CBK263644]	101%	
COc1ccc(OC(C)C(=O)Nc2ccc(S(N)(=O)=O)cc2)cc1 (centres unmarked) [CBK263646]	96%	
O=C(O)Cn1c2ccccc2c2nc3ccccc3nc21 [CBK263649]	81.1%	
O=C(COc1ccccc1Cl)Nc1cccc(NC(=O)c2cccc(Cl)c2)c1 [CBK263651]	106%	
O=[N+]([O-])c1ccc(CN2CCN(Cc3cc(Br)ccc3O)CC2)cc1 [CBK263652G]	88.9%	
COc1ccc(Oc2coc3c(CN(C)C)c(O)ccc3c2=O)cc1 [CBK263653]	95.7%	
CONc1nc(NC(C)(C)C)nc(OCC#N)n1 [CBK263655]	85.9%	
CCOc1ccccc1NC(=O)CC1Sc2ccc(C(F)(F)F)cc2NC1=O (centres unmarked) [CBK263659]	95.6%	
COc1ccc(O)c(CN2CCN(Cc3ccc(Cl)cc3)CC2)c1 [CBK263660]		110%
O=C1C2C3C=CC(C3)C2C(=O)N1CCN1CCN(S(=O)(=O)/C=C/c2ccccc2)CC1 (centres unmarked) [CBK263663]	88.4%	

Structure (SMILES)	viability at 28.5 h, 10 µM	viability at 28.5 h, 10 µM (bulk resorufin, single well)
Cc1ccc(C2CC(=O)C(=CNCCN3CCN(C(=S)Nc4ccccc4)CC3)C(=O)C2)cc1 (centres unmarked) [CBK263665]	96.3%	
CCc1ccc(CN2CCN(Cc3cc(Br)ccc3O)CC2)cc1 [CBK263666]		96.5%
CC1CCc2c(sc(NC(=O)CCN3C(=O)c4ccccc4C3=O)c2C(N)=O)C1 (centres unmarked) [CBK263667]	94.4%	
O=[N+]([O-])c1cccc(S(=O)(=O)NCc2ccccn2)c1 [CBK263669]	98.4%	
Cc1ccc(NC(=O)C2C3C=CC(O3)C2C(=O)O)cc1 (centres unmarked) [CBK263670]	91.4%	
O=C1CC(c2ccc(Cl)cc2)CC(=O)C1=CNCCN1CCN(C(=O)Nc2ccccc2)CC1 (centres unmarked) [CBK263671]	95.3%	
c1ccc(CCNc2nc(-c3cccnc3)nc3ccccc23)cc1 [CBK263672]	105%	
O=C(O)C1C2CCC(O2)C1C(=O)NCc1ccco1 (centres unmarked) [CBK263675]	96.8%	
CCc1cccc(C)c1NC(=O)C1C2CCC(O2)C1C(=O)O (centres unmarked) [CBK263676]	88.1%	
COC(=O)c1c(NC(=O)C2CC=CCC2C(=O)O)sc2c1CCC(c1ccccc1)C2 (centres unmarked) [CBK263683]	94.8%	
COc1ccc(NC(=O)C2C3CCC(C3)C2C(=O)O)cc1OC (centres unmarked) [CBK263684]	95.3%	
Cc1sc(NC(=O)C2C3C=CC(C3)C2C(=O)O)c(C(N)=O)c1C (centres unmarked) [CBK263685]	87.6%	
COc1ccc([N+](=O)[O-])cc1NC(=O)C1C2CCC(C2=C(C)C)C1C(=O)O (centres unmarked) [CBK263686]	93.2%	
O=C(/C=C/c1ccccc1)NC(=S)Nc1ccc2oc(-c3ccncc3)nc2c1 [CBK263687]	93.8%	
O=C(O)CC1S\C(=N/N=C\C=C/c2ccccc2)N(c2ccc(O)cc2)C1=O (centres unmarked) [CBK263688]	93%	
CCN1CCN(Cc2c(O)ccc3c(=O)c(-c4ccccc4OC)c(C(F)(F)F)oc23)CC1 [CBK263692]	87.6%	
O=C(NC(=S)Nc1sc2c(c1C(=O)O)CCCC2)c1ccccc1 [CBK263695]	98.1%	
C/C(=N\N=C1\N=C(O)C(CC(=O)NCc2ccccc2)S1)c1ccco1 (centres unmarked) [CBK263698]	89.9%	
CCN1CCN(Cc2c(C)nc3ccc(C)cc3c2O)CC1 [CBK263699]	89.8%	
O=C(NCc1ccco1)/C(=C\c1ccccc1)NC(=O)c1ccc(Br)cc1 [CBK263701]	87.7%	
O=C(CC1(O)C(=O)Nc2ccccc21)CC1(O)C(=O)Nc2ccccc21 (centres unmarked) [CBK263705]	93.1%	

Structure (SMILES)	viability at 28.5 h, 10 µM	viability at 28.5 h, 10 µM (bulk resorufin, single well)
CN1CCc2c(sc3nc(SCc4ccc(Cl)c(Cl)c4)n(-c4ccccc4)c(=O)c23)C1 [CBK263706]	94.2%	
O=C(Nc1cccc(C(=O)O)c1)/C(=C\c1ccco1)NC(=O)c1ccc(Br)cc1 [CBK263707]	91.3%	
COc1ccc(/C=N/NC(=O)c2cc[nH]n2)cc1COc1ccc(Cl)cc1Cl [CBK263708]	90.9%	
O=C(CC1S\C(=N/N=C/C=C/c2ccccc2)N=C1O)Nc1ccc(C(=O)O)cc1 (centres unmarked) [CBK263711]	101%	
O=C(CSc1cc(Cl)ccc1Cl)Nc1cccc(Cl)c1 [CBK263712]	113%	
COc1ccc(CSc2nc3sc4c(c3c(=O)n2Cc2ccccc2)CCN(Cc2ccccc2)C4)cc1 [CBK263714]	85.1%	
O=C(Nc1ccc(S(=O)(=O)Nc2ncccn2)cc1)c1cc([N+](=O)[O-])ccc1Cl [CBK263717]	89.9%	
O=C(O)CNC(=O)/C(=C\c1ccc(F)cc1)NC(=O)c1ccco1 [CBK263718]	96.4%	
O=C(O)COc1ccc(NC(=O)c2ccc3c(c2)C(=O)N(CC2CCCO2)C3=O)cc1 (centres unmarked) [CBK263719]	92.5%	
COC(=O)C1=C(C)N(CCc2ccc(OC)c(OC)c2)C(=O)/C1=C\c1ccc(O)cc1 [CBK263722]	89.6%	
O=C(O)CC1S/C(=N/N=C2/C(=O)Nc3ccccc32)N(c2ccc(O)cc2)C1=O (centres unmarked) [CBK263723]	93%	
Nc1nc(SCc2ccc(Cl)cc2)nc2sc3c(c12)CCN(Cc1ccccc1)C3 [CBK263724]	88.1%	
O=C(COc1ccccc1)C(C(=O)c1ccccc1)=C1Nc2ccccc2N1 [CBK263725]	97.8%	
CCC1CCCCN1Cc1c(O)ccc2c(=O)c(Oc3ccc(OC)cc3)c(C(F)(F)F)oc12 (centres unmarked) [CBK263727]	98.8%	
CCN(CC)CCSc1nc2sc3c(c2c(=O)n1-c1ccccc1)CC(C)(C)OC3 [CBK263728]	96.6%	
CC(C)(C)OC(=O)COc1cc2oc(=O)cc(-c3ccccc3)c2cc1Cl [CBK263729]	87.6%	
COc1ccccc1C/C(N)=N/OC(=O)COc1ccc2ccccc2c1 [CBK263730]	89.7%	
Cc1ccc(/C=N/N=C2/N=C(O)C(CC(=O)Nc3ccccc3C(F)(F)F)S2)o1 (centres unmarked) [CBK263731]	104%	
COc1ccc(Nc2nnc(-c3ccc(C(=O)NCCO)cc3)c3ccccc23)cc1 [CBK263735]	90.5%	
O=C(Nc1ccc(S(=O)(=O)Nc2ncccn2)cc1)c1ccc(Cl)c([N+](=O)[O-])c1 [CBK263739]	101%	
CC(C)N1CCc2c(sc3nc(SCc4ccc(Cl)cc4)n(Cc4ccccc4)c(=O)c23)C1 [CBK263745]	84.4%	

Structure (SMILES)	viability at 28.5 h, 10 µM	viability at 28.5 h, 10 µM (bulk resorufin, single well)
O=C(Nc1cccc(C(=O)O)c1)/C(=C\c1ccc2c(c1)OCO2)NC(=O)c1ccccc1Cl [CBK263746]	96.4%	
O=C(O)COc1ccc2c(=O)c(Oc3ccccc3Br)c(C(F)(F)F)oc2c1 [CBK263747]	101%	
COc1ccccc1NC(=O)CC1S/C(=N\N=C2/CCCc3ccccc32)N=C1O (centres unmarked) [CBK263748]	102%	
COc1ccc(N2C(=O)/C(=C/c3ccc(-c4cc(C(=O)O)ccc4Cl)o3)C(=O)NC2=S)cc1 [CBK263750]		97.8%
O=C(CN(c1ccccc1)S(=O)(=O)c1ccccc1[N+](=O)[O-])Nc1ccc(I)cc1 [CBK263755]	58.3%	
Cc1ccc(NCc2nc3ccccc3n2Cc2ccccc2)cc1C [CBK263756]	98.4%	
COc1cccc(N(CC(=O)Nc2ccc(C)c(C)c2)S(=O)(=O)c2ccc(C)cc2)c1 [CBK263761]	103%	
COc1cc(/C=N/n2cnnc2)ccc1OCCOc1ccc(C(C)(C)C)cc1 [CBK263762]	88.8%	
O=C(COc1ccc2ccccc2c1)Nc1ccc(S(=O)(=O)N2CCCCC2)cc1 [CBK263765]	118%	
COc1ccc(C(=O)C2=C(O)C(=O)N(CCCO)C2c2ccc(Br)cc2)cc1 (centres unmarked) [CBK263769]	95.5%	
CS(=O)(=O)N(CC(=O)NC1CCCCC1)c1cccc2ccccc12 [CBK263770]	83.9%	
NS(=O)(=O)c1ccc(CCNC(=O)c2ccc([N+](=O)[O-])cc2)cc1 [CBK263773]	104%	
COc1ccc(C2C(C(C)=O)=C(O)C(=O)N2CCCC(=O)O)cc1 (centres unmarked) [CBK263774]	100%	
Cc1ccc2nsnc2c1NC(=O)COc1ccccc1[N+](=O)[O-] [CBK263779]	92.7%	
Cc1ccc(S(=O)(=O)/N=C(/NCc2ccc(Cl)cc2)Nc2nc(C)cc(C)n2)cc1 [CBK263785]	102%	
Cc1cc2c(cc1C)N(C(=O)CSc1ncn[nH]1)C(C)(C)c1ssc(=S)c1-2 [CBK263786]	96.3%	
O=C(C1=C(O)C(=O)N(c2ccc([N+](=O)[O-])cc2)C1c1ccccc1)c1ccccc1 (centres unmarked) [CBK263787]	94.4%	
O=C(Cn1c2ccccc2c2ccccc21)Sc1nc2ccccc2[nH]1 [CBK263788]	103%	
O=C(CN1C(=O)c2ccccc2C1=O)Nn1cnnc1 [CBK263789]	99.6%	
COc1cccc(N(CC(=O)Nc2ccccc2Cl)S(=O)(=O)c2ccc(C)cc2)c1 [CBK263791]	93.4%	
